System: BV-2
Test: Antiinflammatory activity in mouse BV2 cells assessed as inhibition of LPS-induced nitric oxide production after 24 hrs by griess assay
Assay type: functional, cell-based
Details: BV-2, 24 h

Compound: C=C(C)C(O)Cc1c(OC)cc(OC)c2ccc(=O)oc12 (stereo unspecified)
- IC50: 15.5 µM

Compound: OC/C=C/c1ccc(O)c(/C=C/[C@@]23CCC(CO)=C[C@H]2c2cc(/C=C/CO)ccc2O[C@H]3O)c1
- IC50: > 50 µM

Compound: C=C(C)/C=C/c1c(OC)ccc2ccc(=O)oc12
- IC50: 11.8 µM

Compound: C=C(C)[C@H](OC(=O)CC(C)C)[C@H](O)c1c(OC)ccc2ccc(=O)oc12
- IC50: 21.3 µM

Compound: OC/C=C/c1ccc(O)c(/C=C/[C@]23CCC(CO)=C[C@H]2c2cc(/C=C/CO)ccc2O[C@H]3O)c1
- IC50: 8.6 µM

Compound: COc1ccc2ccc(=O)oc2c1C(=O)C(OC(=O)CC(C)C)=C(C)C
- IC50: 37.6 µM

Compound: C=C(C)[C@H](O)[C@H](OC(=O)CC(C)C)c1c(OC)ccc2ccc(=O)oc12
- IC50: 26.4 µM

Compound: C=C(C)[C@@H]1O[C@H](C(=C(C)C)c2c(OC)ccc3ccc(=O)oc23)O[C@@H]1c1c(OC)ccc2ccc(=O)oc12
- IC50: 37.6 µM

Compound: C=C(C)[C@H](O)[C@H](C[C@@](C)(O)/C=C/c1c(OC)ccc2ccc(=O)oc12)c1c(OC)ccc2ccc(=O)oc12
- IC50: 28.9 µM

Compound: COc1ccc2ccc(=O)oc2c1/C=C\C(C)=O
- IC50: 16.9 µM

Compound: O=c1c(O)c(-c2ccc(O)c(O)c2)oc2cc(O)cc(O)c12 [QUERCETIN]
- IC50: 7.2 µM
